Reference: patent US20240041828A1, “Combination Therapeutics Comprising Nrf2 Agonists and Antivirals for Treating Viral Infections” (The Regents of the University of California, priority 2022, published 2024)
Entries after “also recorded” stand apart in the source; their conditions may differ. Counter-ions that a name gives are not always drawn. Like-named read-outs stand apart in the source and are kept apart here.

Legend:
Assay type in all cases: cell-based
[1] = test system: B.1.617.2 (Delta) SARS-CoV-2 variant; experiment: microbe, parasite or virus in culture; details: for IC50: Severe acute respiratory syndrome coronavirus 2, A549
[2] = test system: SARS-coV-2 Omicron variant
[3] = test system: B.1.617.2 (Delta) SARS-CoV-2 variant

COC(=O)/C=C/C(=O)OC [DMF, Dimethyl fumarate]
IC50 compared to comparator drug [1]: higher IC50 compared to Paxlovid™; also recorded: higher IC50 compared to molnupiravir | anti-SARS-CoV-2 activity (words, figure legend) [1]: anti-SARS-CoV-2 activity in single layer human airway cells that is lower than Paxlovid™; also recorded: strong anti-SARS-CoV-2 activity in single layer human airway cells that is higher than molnupiravir | IC50 [1]: 16.7 µM | IC50 compared to comparator drug [2]: IC50 that was similar to Paxlovid™; also recorded: higher than molnupiravir IC50 | anti-SARS-CoV-2 activity (words, figure legend) [2]: stronger anti-SARS-CoV-2 activity in multilayer human airway cell culture than molnupiravir | drug interaction (words, figure legend) [3]: additive anti-SARS-CoV-2 activity with Paxlovid™; also recorded: additive anti-SARS-CoV-2 activity with molnupiravir

COC1=C(OC)C(=O)C(CCCCCCCCCC[P+](c2ccccc2)(c2ccccc2)c2ccccc2)=C(C)C1=O.CS(=O)(=O)[O-] [Mito-MES, 10-(4,5-dimethoxy-2-methyl-3,6-dioxo-1,4-cyclohexadienyl) decyl triphenylphosphonium methanesulfonate]
IC50 [1]: 0.144 µM | IC50 compared to comparator drug ([1]; methanesulfonate): higher IC50 compared to molnupiravir | anti-SARS-CoV-2 activity (words, figure legend) ([1]; methanesulfonate): strong anti-SARS-CoV-2 activity in single layer human airway cells that is similar to Paxlovid™; also recorded: strong anti-SARS-CoV-2 activity in single layer human airway cells that is higher than molnupiravir | IC50 compared to comparator drug [2]: higher than Paxlovid™ IC50 | better antiviral effect in ALI HAE system compared to Paxlovid ([2]; ALI HAE system): about 1000 fold | anti-SARS-CoV-2 activity (words, figure legend) ([2]; methanesulfonate): stronger anti-SARS-CoV-2 activity in multilayer human airway cell culture than Paxlovid™; also recorded: stronger anti-SARS-CoV-2 activity in multilayer human airway cell culture than molnupiravir | drug interaction (words, figure legend) ([3]; methanesulfonate): additive anti-SARS-CoV-2 activity with Paxlovid™; also recorded: additive anti-SARS-CoV-2 activity with molnupiravir

CC(C)C(=O)OC[C@H]1O[C@@H](n2ccc(NO)nc2=O)[C@H](O)[C@@H]1O [molnupiravir, Molnupiravir]
IC50 [1]: 31 µM
